Laboratory results reported in ChEMBL document CHEMBL2346504, “Olive secoiridoids and semisynthetic bioisostere analogues for the control of metastatic breast cancer” (Bioorg Med Chem, 2013).
pIC50: −log10 of the molar value. The source made the active and inactive calls. No cut-off for these calls is given here.

Experiments:
MCF-10A [1] = assay: Cytotoxicity against human MCF10A cells at IC50 in MDA-MB-231 MTT assay after 24 hrs by MTT assay; assay type: cell-based
MDA-MB-231 [2] = assay: Antimigratory activity against human MDA-MB-231 cells after 24 hrs by wound healing assay; settings: MDA-MB-231, 24 h
MDA-MB-231 [3] = assay: Antiinvasive activity against human MDA-MB-231 cells at 10 to 20 uM after 24 hrs by Cultrex BME assay; assay type: functional, cell-based
MDA-MB-231 [4] = assay: Cytotoxicity against human MDA-MB-231 cells after 24 hrs by MTT assay; settings: MDA-MB-231, 24 h
MCF-10A [5] = assay: Cytotoxicity against human MCF10A cells at IC50 in wound healing assay after 24 hrs by MTT assay; assay type: cell-based
MDA-MB-231 [6] = assay: Antimigratory activity against human MDA-MB-231 cells at 25 uM after 24 hrs by wound healing assay; assay type: functional; settings: for inhibition at 25 µM: MDA-MB-231, 24 h
[7] = target: T1, Hepatocyte growth factor receptor (Homo sapiens, UniProt P08581); assay: Competitive inhibition of c-MET phosphorylation (unknown origin) after 60 mins by Omnia kinase assay
[8] = target: T1, Hepatocyte growth factor receptor; assay: Inhibition of c-MET phosphorylation (unknown origin) at 10 uM after 1 hr by Z'-LYTE kinase assay
MDA-MB-231 [9] = assay: Antimigratory activity against human MDA-MB-231 cells at 10 uM after 24 hrs by wound healing assay; assay type: functional, cell-based
[10] = target: T1, Hepatocyte growth factor receptor; settings: 25 to 100 nM
Description: Competitive inhibition of c-MET phosphorylation (unknown origin) at 25 to 100 nM after 60 mins by Omnia kinase assay

MDA-MB-231 [11] = assay: Antiinvasive activity against human MDA-MB-231 cells assessed as cell invasion at 20 uM after 24 hrs by Cultrex BME assay; assay type: functional
MDA-MB-231 [12] = assay: Antiinvasive activity against human MDA-MB-231 cells assessed as cell invasion at 10 uM after 24 hrs by Cultrex BME assay; assay type: functional
MDA-MB-231 [13] = assay: Antimigratory activity against human MDA-MB-231 cells at 50 uM after 24 hrs by wound healing assay; assay type: functional, cell-based
MDA-MB-231 [14] = assay: Antiinvasive activity against human MDA-MB-231 cells at 20 uM after 24 hrs by Cultrex BME assay; assay type: functional; settings: MDA-MB-231, 24 h

T1 sequence (P08581 whole entry): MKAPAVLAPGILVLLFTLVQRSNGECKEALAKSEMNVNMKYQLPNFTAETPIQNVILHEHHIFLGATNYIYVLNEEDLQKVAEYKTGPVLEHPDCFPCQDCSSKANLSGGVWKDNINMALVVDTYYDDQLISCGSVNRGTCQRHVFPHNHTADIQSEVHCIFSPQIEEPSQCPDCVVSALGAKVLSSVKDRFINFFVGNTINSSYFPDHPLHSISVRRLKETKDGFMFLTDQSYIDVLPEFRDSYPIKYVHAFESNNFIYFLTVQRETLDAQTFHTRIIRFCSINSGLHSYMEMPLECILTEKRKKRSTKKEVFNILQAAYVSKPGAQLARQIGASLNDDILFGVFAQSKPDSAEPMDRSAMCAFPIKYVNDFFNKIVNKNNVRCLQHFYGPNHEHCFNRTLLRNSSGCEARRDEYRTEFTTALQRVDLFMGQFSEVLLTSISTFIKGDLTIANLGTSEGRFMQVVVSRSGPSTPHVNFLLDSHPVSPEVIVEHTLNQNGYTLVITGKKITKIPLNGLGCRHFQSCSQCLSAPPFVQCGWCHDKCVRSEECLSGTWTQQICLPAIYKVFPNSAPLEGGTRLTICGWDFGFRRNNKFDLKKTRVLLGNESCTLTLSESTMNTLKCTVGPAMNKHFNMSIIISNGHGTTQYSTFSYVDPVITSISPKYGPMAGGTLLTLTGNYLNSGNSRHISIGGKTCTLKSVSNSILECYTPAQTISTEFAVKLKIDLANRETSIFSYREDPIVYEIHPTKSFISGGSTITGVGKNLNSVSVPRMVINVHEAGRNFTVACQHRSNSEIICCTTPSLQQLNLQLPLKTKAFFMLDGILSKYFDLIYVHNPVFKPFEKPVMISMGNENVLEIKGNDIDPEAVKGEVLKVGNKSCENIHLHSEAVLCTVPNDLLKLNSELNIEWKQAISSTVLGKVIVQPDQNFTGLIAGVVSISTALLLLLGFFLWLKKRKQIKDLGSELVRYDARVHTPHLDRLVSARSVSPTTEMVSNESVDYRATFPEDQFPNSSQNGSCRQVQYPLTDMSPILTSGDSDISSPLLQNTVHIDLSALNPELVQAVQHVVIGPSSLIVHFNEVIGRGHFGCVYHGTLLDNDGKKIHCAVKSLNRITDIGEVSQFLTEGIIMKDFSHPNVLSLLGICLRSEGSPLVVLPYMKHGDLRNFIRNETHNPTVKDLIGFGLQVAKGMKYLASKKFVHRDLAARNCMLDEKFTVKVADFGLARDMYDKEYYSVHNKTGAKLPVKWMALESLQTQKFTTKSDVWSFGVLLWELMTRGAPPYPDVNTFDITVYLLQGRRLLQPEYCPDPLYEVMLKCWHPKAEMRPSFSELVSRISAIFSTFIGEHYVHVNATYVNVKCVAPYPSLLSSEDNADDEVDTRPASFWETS

| SMILES | Activity (MCF-10A [1]) | pIC50 (MDA-MB-231 [2]) | inhibition (MDA-MB-231 [3]) | pIC50 (MDA-MB-231 [4]) | Activity (MCF-10A [5]) | further results |
| --- | --- | --- | --- | --- | --- | --- |
| Cc1ccc(S(=O)(=O)NC(=O)OCCc2ccc(O)cc2)cc1 [4-HYDROXYPHENETHYL TOSYLCARBAMATE] | Non-toxic | < 4.00 | inactive | < 4.00 | Non-toxic | – |
| COc1cc(C(=O)OCCc2ccc(O)cc2)cc(OC)c1O [TYROSOL SYRINGATE] | Non-toxic | 4.71 | inactive | < 4.00 | Non-toxic | inhibition at 25 µM (MDA-MB-231 [6]): 60% |
| C/C=C(/C=O)[C@@H](CC=O)CC(=O)OCCc1ccc(O)cc1 [(-)-OLEOCANTHAL] | Non-toxic | – | inactive | – | Non-toxic | inhibition [7]: Active; inhibition [8]: 93.4%; inhibition (MDA-MB-231 [9]): Active |
| Cc1[nH]c(/C=C2\C(=O)Nc3ccc(S(=O)(=O)N(C)c4cccc(Cl)c4)cc32)c(C)c1C(=O)N1CCN(C)CC1 | – | – | – | – | – | inhibition [10]: Active |
| COc1cc(/C=C/C(=O)OCCc2ccc(O)cc2)cc(OC)c1OC | Non-toxic | 4.33 | inactive | < 4.00 | Non-toxic | inhibition (MDA-MB-231 [6]): Active |
| CCn1cc(C(=O)OCCc2ccc(O)cc2)c(=O)c2ccc(C)nc21 | Non-toxic | – | – | – | Non-toxic | Activity (MDA-MB-231 [11]): 36%; Activity (MDA-MB-231 [12]): 60% |
| O=C(NCc1ccccc1)OCCc1ccc(O)cc1 | Non-toxic | < 4.00 | – | < 4.00 | Non-toxic | – |
| OCCc1ccc(O)cc1 [TYROSOL] | Non-toxic | < 4.00 | – | < 4.00 | Non-toxic | inhibition (MDA-MB-231 [13]): inactive |
| O=C(Cc1ccc(O)c(O)c1)OCCc1ccc(O)cc1 | Non-toxic | 4.38 | inactive | < 4.00 | Non-toxic | inhibition (MDA-MB-231 [6]): Active |
| O=C(/C=C/c1ccc(O)c(O)c1)OCCc1ccc(O)cc1 [TYROSOL CAFFEATE] | Non-toxic | < 4.00 | inactive | < 4.00 | Non-toxic | inhibition at 20 µM (MDA-MB-231 [14]): > 50% |
| O=C(NCc1ccccc1)OCCc1ccc(OC(=O)NCc2ccccc2)cc1 | Non-toxic | < 4.00 | inactive | < 4.00 | Non-toxic | – |
| COc1cc(CC(=O)OCCc2ccc(O)cc2)ccc1O [TYROSOL HOMOVANILLATE] | Non-toxic | < 4.00 | inactive | < 4.00 | Non-toxic | – |
| COc1cc(/C=C/C(=O)OCCc2ccc(O)cc2)cc(OC)c1O [TYROSOL SINAPATE] | Non-toxic | – | inactive | – | Non-toxic | inhibition (MDA-MB-231 [6]): Active; inhibition at 20 µM (MDA-MB-231 [14]): > 50% |
| C=C[C@@H]1[C@H](O)OC=C(C(=O)OC)[C@H]1CC(=O)OCCc1ccc(O)cc1 [LIGSTROSIDE AGLYCONE] | Non-toxic | 4.86 | – | 4.09 | Non-toxic | inhibition at 25 µM (MDA-MB-231 [6]): 60%; inhibition at 20 µM (MDA-MB-231 [14]): > 50% |
